Reference: publication PMC3517478 (BMC Neurology, 2012)
pEC50: −log10 of the molar value.

Experiments:
[1] = molecular target: T1, human α1S267I-GlyR expressed in HEK 293 cells (Homo sapiens, UniProt P23415, S295I); test: Whole-cell patch-clamp, positive allosteric modulation of glycine (EC20) induced currents; format: cell-based; set-up: expressed in transfected cells; host or cells: HEK 293 (transient, electroporation; pcDNA1amp vector); settings: S267I
T1 sequence (P23415 29-457 S295I): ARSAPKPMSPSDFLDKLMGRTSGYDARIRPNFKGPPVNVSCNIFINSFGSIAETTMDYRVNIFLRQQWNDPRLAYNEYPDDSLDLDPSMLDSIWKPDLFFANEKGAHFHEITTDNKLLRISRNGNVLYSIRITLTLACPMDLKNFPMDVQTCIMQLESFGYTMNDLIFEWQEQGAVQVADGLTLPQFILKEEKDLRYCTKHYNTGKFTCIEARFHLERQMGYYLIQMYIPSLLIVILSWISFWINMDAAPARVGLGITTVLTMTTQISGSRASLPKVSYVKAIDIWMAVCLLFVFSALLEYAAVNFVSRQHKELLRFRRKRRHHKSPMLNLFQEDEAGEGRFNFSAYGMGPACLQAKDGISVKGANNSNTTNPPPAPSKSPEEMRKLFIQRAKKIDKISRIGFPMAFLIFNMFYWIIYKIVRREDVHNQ
Protocol: Drug-containing vials were vigorously vortexed for 30min.
A new cell was used for each protocol and at least four different experiments were performed for each condition. The concentration of the diluent EtOH corresponding to the highest drug concentration used was 17150 μM.
Currents were filtered at 2 kHz.
Currents were normalized to their own maximum response.

[2] = system: WT glycine receptor; settings: on cell mode, 4 s drug application; cited from earlier work
[3] = system: human alpha1 glycine receptor; settings: human alpha1 glycine receptors in HEK293; cited from earlier work
[4] = system: rat alpha 1 GlyR; settings: rat alpha 1 GlyR in HEK293; cited from earlier work

| Compound | positive allosteric modulation nH ± SEM ([1]; EC20 glycine 30 μM) | pEC50 ([1]; co-applied with sub-saturating (EC20) glycine 30 μM, read-out: positive allosteric modulation EC50 ± SEM) | positive allosteric modulation, potentiation [% of peak current amplitude] ± SEM ([1]; maximal positive allosteric modulation, EC20 glycine 30 μM) [%] | rise time [2] [ms] | Hill slope nH [3] | Hill slope nH [4] |
| --- | --- | --- | --- | --- | --- | --- |
| 4-chloro-2,6-dimethylphenol [4-chloropropofol] | 0.7 ± 0.3 | 4.26 | 128 ± 14 | – | – | – |
| NCC(=O)O [glycine] | – | – | – | 0.4 | 2.4 | 3.3 |
